From PubChem BioAssay AID248 (DTP/NCI, 2004)
Where “and” joins values, the source holds several entries; their conditions need not be identical. Identical values can stand only once. Inconclusive results and toxic doses are left out. Cut-off read from the data, not from the text of the source: active = T/C of 150% or more; inactive = T/C below 125%.

System: L1210 leukemia ip in BDF1 mice, survival T/C
Test: NCI In Vivo Anticancer Drug Screen. Data for tumor model L1210 Leukemia (intraperitoneal) in B6D2F1 (BDF1) mice
Details: endpoint: mean survival time, higher = longer survival
Summary of the method: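 Ratio derived from survival: compound-dosed mice over vehicle-dosed mice, all bearing a transplantable tumor.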

[1] = dose: 100.0 mg/kg/injection, schedule: Q04DX003 (ip), vehicle: Klucel (hydroxypropylcellulose) (HPC)
[2] = dose: 200.0 mg/kg/injection, schedule: Q04DX003 (ip), vehicle: Klucel (hydroxypropylcellulose) (HPC)
[3] = dose: 400.0 mg/kg/injection, schedule: Q04DX003 (ip), vehicle: Klucel (hydroxypropylcellulose) (HPC)
[4] = dose: 100.0 mg/kg/injection, schedule: Q04DX003 (ip), vehicle: saline with Tween-80
[5] = dose: 200.0 mg/kg/injection, schedule: Q04DX003 (ip), vehicle: saline with Tween-80
[6] = dose: 50.0 mg/kg/injection, schedule: Q01DX009 (ip), vehicle: saline with Tween-80
[7] = dose: 100.0 mg/kg/injection, schedule: Q01DX009 (ip), vehicle: saline with Tween-80
[8] = dose: 100.0 mg/kg/injection, schedule: Q04DX002 (ip), vehicle: Klucel (hydroxypropylcellulose) (HPC)
[9] = dose: 200.0 mg/kg/injection, schedule: Q01DX009 (ip), vehicle: saline with Tween-80
[10] = dose: 200.0 mg/kg/injection, schedule: Q04DX002 (ip), vehicle: Klucel (hydroxypropylcellulose) (HPC)
[11] = dose: 400.0 mg/kg/injection, schedule: Q04DX002 (ip), vehicle: Klucel (hydroxypropylcellulose) (HPC)
[12] = dose: 100.0 mg/kg/injection, schedule: Q01DX009 (ip), vehicle: Klucel (hydroxypropylcellulose) (HPC)
[13] = dose: 200.0 mg/kg/injection, schedule: Q01DX009 (ip), vehicle: Klucel (hydroxypropylcellulose) (HPC)
[14] = dose: 400.0 mg/kg/injection, schedule: Q01DX009 (ip), vehicle: Klucel (hydroxypropylcellulose) (HPC)
[15] = dose: 50.0 mg/kg/injection, schedule: Q01DX009 (ip), vehicle: Klucel (hydroxypropylcellulose) (HPC)

Measured: T/C

CSCCC(N)C(=O)O (stereo not drawn)
inactive: dose: 40.0 mg/kg/injection, schedule: Q01DX009 (ip), vehicle: saline 96 % of control | dose: 80.0 mg/kg/injection, schedule: Q01DX009 (ip), vehicle: saline 107 % of control | dose: 100.0 mg/kg/injection, schedule: Q01DX001 (ip), vehicle: carboxymethylcellulose (CMC) 92 % of control | [1] 104 % of control | dose: 160.0 mg/kg/injection, schedule: Q01DX009 (ip), vehicle: saline 102 % of control | dose: 200.0 mg/kg/injection, schedule: Q01DX001 (ip), vehicle: carboxymethylcellulose (CMC) 95 % of control | [2] 98 % of control | dose: 320.0 mg/kg/injection, schedule: Q01DX009 (ip), vehicle: saline 98 % of control | dose: 400.0 mg/kg/injection, schedule: Q01DX001 (ip), vehicle: carboxymethylcellulose (CMC) 103 % of control | [3] 102 % of control

CN1C(=S)c2ccccc2S1(=O)=O
inactive: [4] 106 % of control | [5] 94 % of control | dose: 400.0 mg/kg/injection, schedule: Q04DX003 (ip), vehicle: saline with Tween-80 92 % of control

O=C(O)C1c2ccccc2-c2ccccc21
inactive: dose: 100.0 mg/kg/injection, schedule: Q01DX001 (ip), vehicle: saline 113 % of control | dose: 200.0 mg/kg/injection, schedule: Q01DX001 (ip), vehicle: saline 91 % of control | dose: 400.0 mg/kg/injection, schedule: Q01DX001 (ip), vehicle: saline 101 % of control

NNC(=S)N/N=C/c1ccc([N+](=O)[O-])s1
inactive: dose: 100.0 mg/kg/injection, schedule: Q04DX003 (ip), vehicle: saline 87 % of control | dose: 200.0 mg/kg/injection, schedule: Q04DX003 (ip), vehicle: saline 89 % of control | dose: 400.0 mg/kg/injection, schedule: Q04DX003 (ip), vehicle: saline 95 % of control

CC(C)(C)OC(=O)NC(CC(=O)O)C(=O)O (stereo not drawn)
inactive: dose: 25.0 mg/kg/injection, schedule: Q01DX009 (ip), vehicle: saline with Tween-80 99 % of control | [6] 89 % of control | [7] 101 % of control and 117 % of control | [8] 90 % of control | [9] 96 % of control | [10] 101 % of control | dose: 400.0 mg/kg/injection, schedule: Q01DX009 (ip), vehicle: saline with Tween-80 91 % of control | [11] 101 % of control

O=c1[nH]c2cc3[nH]c(=O)c(=O)c3cc2c1=O
inactive: [12] 102 % of control | [13] 100 % of control | [14] 100 % of control

N#CC(N)=NC1CCC(C2CCC(O)CC2)CC1 (stereo not drawn)
inactive: [12] 94 % of control | [13] 96 % of control | [14] 96 % of control

CC(C)/C=N/NC(N)=S
inactive: dose: 3.13 mg/kg/injection, schedule: Q01DX001 (ip), vehicle: Klucel (hydroxypropylcellulose) (HPC) 102 % of control | dose: 6.25 mg/kg/injection, schedule: Q01DX001 (ip), vehicle: Klucel (hydroxypropylcellulose) (HPC) 118 % of control | dose: 12.5 mg/kg/injection, schedule: Q01DX001 (ip), vehicle: Klucel (hydroxypropylcellulose) (HPC) 99 % of control and 102 % of control

C/C=C(/C)C(=O)OCCCCCCCCC
inactive: [8] 102 % of control | [10] 102 % of control | [11] 94 % of control

COC12CC(COC(=O)c3cncc(Br)c3)CN(C)C1Cc1cn(C)c3cccc2c13 (stereo not drawn)
inactive: [12] 100 % of control | [13] 116 % of control | [14] 113 % of control

NNS(=O)(=O)CCCCCCCCCCC(=O)O
inactive: [6] 99 % of control | [7] 96 % of control | [4] 92 % of control | [9] 91 % of control | [5] 90 % of control

COc1ccc(OCCOC(=O)Nc2ccc(C)cc2[N+](=O)[O-])cc1
inactive: [15] 97 % of control | [12] 90 % of control | [1] 103 % of control | [13] 90 % of control | [2] 103 % of control | [3] 100 % of control

CCCCCCCCCCCCCCCC[N+](C)(C)Cc1ccccc1
inactive: dose: 0.5 mg/kg/injection, schedule: Q04DX002 (ip), vehicle: Klucel (hydroxypropylcellulose) (HPC) 98 % of control | dose: 1.0 mg/kg/injection, schedule: Q04DX002 (ip), vehicle: Klucel (hydroxypropylcellulose) (HPC) 103 % of control | dose: 2.0 mg/kg/injection, schedule: Q04DX002 (ip), vehicle: Klucel (hydroxypropylcellulose) (HPC) 103 % of control

CC(CN(C)C)CN1c2ccccc2C(C)(C)c2ccccc21 (stereo not drawn)
inactive: dose: 13.8 mg/kg/injection, schedule: Q01DX001 (ip), vehicle: water 101 % of control | dose: 27.5 mg/kg/injection, schedule: Q01DX001 (ip), vehicle: water 104 % of control | dose: 45.0 mg/kg/injection, schedule: Q01DX001 (ip), vehicle: water 98 % of control | dose: 50.0 mg/kg/injection, schedule: Q01DX001 (ip), vehicle: water 91 % of control | dose: 100.0 mg/kg/injection, schedule: Q01DX001 (ip), vehicle: water 91 % of control | dose: 200.0 mg/kg/injection, schedule: Q01DX001 (ip), vehicle: water 91 % of control | dose: 400.0 mg/kg/injection, schedule: Q01DX001 (ip), vehicle: water 97 % of control

CCN(C(=O)Nc1ccc(OC)cc1)c1ccccc1C
inactive: [1] 99 % of control | [13] 96 % of control | [2] 96 % of control | [14] 102 % of control | [3] 96 % of control

CCNCCCNCC(Cc1ccccc1)c1ccccc1 (stereo not drawn)
inactive: dose: 100.0 mg/kg/injection, schedule: Q04DX002 (ip), vehicle: saline 102 % of control

CN(Nc1c([N+](=O)[O-])cc([N+](=O)[O-])cc1[N+](=O)[O-])c1ccc2ccccc2c1
inactive: [15] 103 % of control | [12] 95 % of control | [1] 95 % of control | [13] 95 % of control | [2] 92 % of control | [14] 98 % of control | [3] 95 % of control

N#Cc1c[nH]n2c(=S)ncnc12
inactive: [7] 105 % of control | [9] 101 % of control
